Measured values: US5498602A, “Oligosaccharide aromatic glycoside and sulfate thereof” (priority 1991, dated 1996)

Columns and labels:
HIV = experiment: Anti-AIDS (HIV) activity in HIV-infected MT-4 cells (MTT method); assay type: cell-based; conditions: for EC50 (50% effective concentration, prevention of 50% of cytopathogenic effects of HIV): 37° C., MTT method
Method: (§1) Evaluation method: Test substances having various concentrations were placed in a 96-well microtiter plate along with HIV-infected MT-4 cells (2.5×10^4 /well, MOI: 0.01) immediately after the infection thereof. In order to ascertain the cytotoxicity of the test substance with respect to the MT-4 cells, non-infected cells were cultured in an identical manner along with the test substances of various concentrations. After culturing for 5 days at a temperature of 37° C. in a CO2 incubator, the number of living cells was determined using the MTT method. The antiviral activity is shown in terms of the concentration which prevented 50% of the cytopathogenic effects of the HIV virus (EC50 : 50% effective concentration) and the cytotoxicity is shown in terms of the concentration at which the cytotoxicity of the test substance reaches 50% (CC50 : 50% cytotoxic concentration).Furthermore, the selectivity index (S.I.) is calculated as CC50 /EC50.
(§2) (Reference: Pauwels, et al., J. Viral Methods, 20 (1988) 309-321). Using this method, the compounds of Examples 30-43 were tested for anti-HIV activity. The compounds shown in Table 2 (Examples 35~38) are produced by means of novel sulfation methods. For the purposes of comparison, the conventional anti-AIDS agents AZT (3'-azido-2',3'-dideoxythymidine) and dextran sulfate were also tested, and the results thereof are appended as comparative data.

MT-4 cells = experiment: Cytotoxicity with respect to non-infected MT-4 cells (MTT method); assay type: cell-based; conditions: 5 days; for CC50 (50% cytotoxic concentration): 37° C., MTT method
Method: as §1, §2

[1] = HIV-infected MT-4 cells, MOI 0.01, 5 days

| Molecule | EC50 (50% effective concentration, prevention of 50% of cytopathogenic effects of HIV) (HIV; [1]) | CC50 (50% cytotoxic concentration) (MT-4 cells) | SI (selectivity index, CC50/EC50) (HIV; CC50/EC50, MT-4 cells, HIV) | EC50 (HIV; Human immunodeficiency virus 1, MT4, 120 h, AZT, footnote: units are μM, HIV-infected MT-4 cells, MOI 0.01, 5 days, read-out: EC50 (50% effective concentration)) | CC50 (MT-4 cells; AZT, footnote: units are μM, read-out: CC50 (50% cytotoxic concentration)) |
| --- | --- | --- | --- | --- | --- |
| octylphenyl β-D-galactopyranosyl-(1→4)-{β-D-galactopyranosyl-(1→4)}2 -β-D-glucopyranoside sulfate [Example 39] | 0.82 µg/mL | > 1000 µg/mL | – | – | – |
| p-octylphenyl β-D-glucopyranosyl-(1→3)-{β-D-glucopyranosyl (1→3)}3 -β-D-glucopyranoside sulfate [Example 30] | 0.62 µg/mL | > 1000 µg/mL | – | – | – |
| p-octylphenyl β-D-glucopyranosyl-(1→3)-{β-D-glucopyranosyl (1→3)}3 -β-D-glucopyranoside sulfate [Example 37] | 0.080 µg/mL | > 1000 µg/mL | – | – | – |
| p-heptyloxyphenyl β-D-glucopyranosyl-(1→3)-{β-D-glucopyranosyl-(1→3)}3 -β-D-glucopyranoside sulfate [Example 33] | 0.77 µg/mL | > 1000 µg/mL | – | – | – |
| p-heptyloxyphenyl β-D-glucopyranosyl-(1→3)-{β-D-glucopyranosyl (1→3)}3 -β-D-glucopyranoside sulfate [Example 36] | 0.062 µg/mL | > 1000 µg/mL | – | – | – |
| p-pentylphenyl β-D-glucopyranosyl-(1→3)-{β-D-glucopyranosyl (1→3)}3 -β-D-glucopyranoside sulfate [Example 31] | 0.75 µg/mL | > 1000 µg/mL | – | – | – |
| dextran sulfate [reference compound] | 0.50 µg/mL | > 1000 µg/mL | – | – | – |
| octyloxyphenyl β-D-galactopyranosyl-(1→4)-{β-D-galactopyranosyl-(1→4)}2 -β-D-glucopyranoside sulfate [Example 40] | 0.95 µg/mL | > 1000 µg/mL | – | – | – |
| p-(1,1,3,3-tetramethylbutyl)phenyl β-D-glucopyranosyl-(1→3)-{β-D-glucopyranosyl-(1→3)}m -β-D-glucopyranoside sulfate [Example 38] | 0.020 µg/mL | > 1000 µg/mL | – | – | – |
| Cc1cn([C@H]2C[C@H](N=[N+]=[N-])[C@@H](CO)O2)c(=O)[nH]c1=O [AZT, 3'-azido-2',3'-dideoxythymidine, reference compound] | – | – | 2700 | 0.004 µM | 10.8 µM |
| p-octylphenyl β-D-glucopyranosyl-(1→3)-{β-D-glucopyranosyl (1→3)}5 -β-D-glucopyranoside sulfate [Example 34] | 0.31 µg/mL | > 1000 µg/mL | – | – | – |
| sulfated p-heptyloxyphenyl β-D-glucopyranosyl-(1→3)-{β-D-glucopyranosyl-(1→3)}3 -β-D-glucopyranoside [Example 32] | 0.72 µg/mL | > 1000 µg/mL | – | – | – |
| p-(1,1,3,3-tetramethylbutyl)phenyl β-D-glucopyranosyl-(1→3)-{β-D-glucopyranosyl-(1→3)}3 -β-D-glucopyranoside sulfate [Example 35] | 0.038 µg/mL | > 1000 µg/mL | – | – | – |
| octyloxyphenyl β-D-galactopyranosyl-(1→4)-β-D-galactopyranosyl-(1→4)-β-D-glucopyranoside sulfate [Example 41] | 1.12 µg/mL | > 1000 µg/mL | – | – | – |
| heptyloxyphenyl β-D-galactopyranosyl-(1→4)-{β-D-galactopyranosyl-(1→4)}2 -β-D-glucopyranoside sulfate [Example 42] | 0.23 µg/mL | > 1000 µg/mL | – | – | – |
| p-(1,1,3,3-tetramethylbutyl)phenyl β-D-galactopyranosyl-(1→4)-{β-D-galactopyranosyl-(1→4)}2 -β-D-glucopyranoside sulfate [Example 43] | 0.04 µg/mL | > 1000 µg/mL | – | – | – |
